Calls of active or inactive are those of the source. Cut-off read from the data, not from the text of the source, for most assays here: actives have a measured EC50 and inactives only a lower limit.
Columns and labels:
Wee1-like protein kinase = Wee1-like protein kinase (Homo sapiens, UniProt P30291); test: Dose Response Cell-based Assay for Inhibitors of Wee1 Degradation. [Related pubchem assays: 1410, 1321 ]; type: functional
[1] = target: G2/mitotic-specific cyclin-B1 (Homo sapiens, UniProt P14635); test: Counterscreen assay for inhibitors of Wee1 degradation: dose response cell-based assay to identify inhibitors of cyclin B degradation. [Related pubchem assays: 1410, 1321 ]; type: functional
Sequence of G2/mitotic-specific cyclin-B1 (P14635 whole entry): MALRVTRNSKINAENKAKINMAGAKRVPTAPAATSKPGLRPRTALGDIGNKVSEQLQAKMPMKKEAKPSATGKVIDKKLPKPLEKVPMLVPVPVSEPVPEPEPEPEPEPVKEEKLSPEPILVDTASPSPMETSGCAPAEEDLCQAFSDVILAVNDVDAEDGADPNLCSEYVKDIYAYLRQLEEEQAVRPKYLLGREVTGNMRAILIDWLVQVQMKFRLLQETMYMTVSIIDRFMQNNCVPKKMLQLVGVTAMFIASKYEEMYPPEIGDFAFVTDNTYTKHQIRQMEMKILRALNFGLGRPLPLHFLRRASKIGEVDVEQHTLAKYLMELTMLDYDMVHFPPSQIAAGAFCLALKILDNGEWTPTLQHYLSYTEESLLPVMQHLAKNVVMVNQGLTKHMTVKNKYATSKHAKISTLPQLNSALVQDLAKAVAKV

[2] = Luminescence Cell-Based Dose Response HTS to Identify Inhibitors of 5'UTR Stem-Loop Driven Prion Protein mRNA Translation in H4 Neuroglioblastoma Cells. [Related pubchem assays: 1827 (Project Summary), 1813 (Primary HTS)]; type: functional
[3] = microbe, parasite or virus in culture; type: functional; conditions: Mycobacterium tuberculosis
[4] = luciferase reporter signal reduction – luminescence, H4-C neuroglioblastoma cells, dose response (AID 2458); type: functional, cell-based;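 note: H4 neuroglioblastoma cells stably carrying a luciferase reporter gene fusion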
[5] = inhibitors of firefly luciferase expression or activity, dose response, H4 neuroglioma cells, luminescence (AID 1990); type: functional, cell-based
[6] = inhibitors of SNCA 5'UTR-driven translation, confirmation, luminescence, H4 neuroglioblastoma cells, dose confirmation (AID 2454); type: functional, cell-based;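 note: H4 neuroglioblastoma cells carrying an alpha-synuclein 5'UTR luciferase reporter; potency for inhibition of the luciferase signal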
[7] = inhibitors of SNCA 5'UTR-driven reporter translation, confirmation, H4 neuroglioma cells, luminescence (AID 1988); type: functional, cell-based
cells = type: functional, cell-based
[8] = Counterscreen for IDE inhibitors: Luminescence-based cell-based high throughput dose response assay to identify compounds that are cytotoxic to HEK cells. [Related pubchem assays: 434962 (Primary screen (IDE inhibitors in singlicate)), 449730 (Counterscreen (Cytotoxicity in triplicate)), 435028 (Confirmation (IDE inhibitors in triplicate)) …; type: functional; conditions: HEK293
Insulin-degrading enzyme = target: T1, Insulin-degrading enzyme (Homo sapiens, UniProt P14735); test: Dose Response: Fluorescence polarization-based cell-based high throughput dose response assay for inhibitors of insulin-degrading enzyme (IDE). [Related pubchem assays: 434962 (Primary screen (IDE inhibitors in singlicate)), 449730 (Counterscreen (Cytotoxicity in triplicate)), 435028 (Confirmation (IDE inhibitors in triplicate)), 434984 (Summary …; type: functional
T1 sequence (P14735 whole entry): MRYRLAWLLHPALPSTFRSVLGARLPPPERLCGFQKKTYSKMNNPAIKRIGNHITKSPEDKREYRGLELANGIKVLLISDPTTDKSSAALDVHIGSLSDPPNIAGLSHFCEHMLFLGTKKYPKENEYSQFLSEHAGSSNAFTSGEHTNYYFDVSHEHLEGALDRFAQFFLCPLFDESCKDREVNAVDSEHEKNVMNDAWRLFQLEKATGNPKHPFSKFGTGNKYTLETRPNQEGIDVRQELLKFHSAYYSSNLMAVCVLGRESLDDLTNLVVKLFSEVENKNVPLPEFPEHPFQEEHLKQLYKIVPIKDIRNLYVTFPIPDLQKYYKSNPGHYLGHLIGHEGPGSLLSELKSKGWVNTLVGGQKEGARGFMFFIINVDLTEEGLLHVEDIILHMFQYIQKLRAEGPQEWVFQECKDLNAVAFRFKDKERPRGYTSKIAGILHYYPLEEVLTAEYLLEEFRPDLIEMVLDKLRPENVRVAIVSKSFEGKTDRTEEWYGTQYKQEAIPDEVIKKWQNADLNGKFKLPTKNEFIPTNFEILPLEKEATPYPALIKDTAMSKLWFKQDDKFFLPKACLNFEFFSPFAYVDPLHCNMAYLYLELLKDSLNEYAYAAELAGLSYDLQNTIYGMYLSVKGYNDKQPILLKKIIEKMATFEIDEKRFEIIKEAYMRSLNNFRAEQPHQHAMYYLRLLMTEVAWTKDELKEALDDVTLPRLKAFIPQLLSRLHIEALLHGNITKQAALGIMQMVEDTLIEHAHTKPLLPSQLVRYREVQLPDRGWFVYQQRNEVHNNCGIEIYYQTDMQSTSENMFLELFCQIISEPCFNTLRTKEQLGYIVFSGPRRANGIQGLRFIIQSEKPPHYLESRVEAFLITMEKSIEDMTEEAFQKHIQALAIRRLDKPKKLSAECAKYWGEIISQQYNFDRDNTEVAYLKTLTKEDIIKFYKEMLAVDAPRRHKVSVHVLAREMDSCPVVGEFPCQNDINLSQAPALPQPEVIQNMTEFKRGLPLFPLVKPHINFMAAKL

Sequence of Wee1-like protein kinase (P30291 whole entry): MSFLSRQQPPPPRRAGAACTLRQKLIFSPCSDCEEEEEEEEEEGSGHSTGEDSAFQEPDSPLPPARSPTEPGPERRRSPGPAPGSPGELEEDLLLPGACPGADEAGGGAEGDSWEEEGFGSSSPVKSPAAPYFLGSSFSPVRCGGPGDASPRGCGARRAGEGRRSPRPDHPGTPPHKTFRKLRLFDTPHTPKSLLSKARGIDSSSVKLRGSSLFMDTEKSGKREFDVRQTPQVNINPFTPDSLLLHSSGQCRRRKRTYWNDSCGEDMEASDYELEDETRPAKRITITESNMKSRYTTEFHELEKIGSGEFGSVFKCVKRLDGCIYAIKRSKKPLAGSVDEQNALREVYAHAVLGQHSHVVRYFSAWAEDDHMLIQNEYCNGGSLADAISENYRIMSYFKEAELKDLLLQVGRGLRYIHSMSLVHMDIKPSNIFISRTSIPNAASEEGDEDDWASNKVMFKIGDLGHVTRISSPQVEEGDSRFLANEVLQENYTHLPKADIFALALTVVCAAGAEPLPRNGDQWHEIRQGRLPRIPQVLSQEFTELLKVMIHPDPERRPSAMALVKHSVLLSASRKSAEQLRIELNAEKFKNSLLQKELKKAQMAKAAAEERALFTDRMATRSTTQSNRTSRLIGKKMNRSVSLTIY

Q: What does the source list for `COc1cc(C2=NOC(C(=O)NCc3cccs3)C2)cc(OC)c1OC` (stereo unspecified)?
A: EC50 (Wee1-like protein kinase): > 49.7 µM (not active); EC50 [1]: > 49.7 µM (not active)

Q: With `Cc1ccc(C(=O)Nc2cccc(C(F)(F)F)c2)cc1Nc1[nH]cnc2ncnc1-2` as the compound, how does the EC50 [2] read?
A: 11.8 µM (active)

Q: And the CC50 [3]?
A: 34.8 µM (active)

Q: What about the EC50 [4] of the same compound?
A: 1.22 µM (active)

Q: And the EC50 [5]?
A: < 0.1 µM (active)

Q: What about the EC50 [6] of the same compound?
A: > 12 µM (not active)

Q: And the EC50 [7]?
A: < 0.1 µM (active)

Q: What about the EC50 (cells) of the same compound?
A: 4.59 µM (active)

Q: What does the source list for `Cc1ccc(NC(=O)CSc2nnc(CN3CCOCC3)n2C)cc1C`?
A: IC50 [8]: > 55.7 µM (not active); IC50 (Insulin-degrading enzyme): > 55.9 µM (not active)
